Source: US6737383B1, “Herbicidal oxadiazolidines” (priority 1999, dated 2004)

Experiments:
purple nutsedge = experiment: Test D purple nutsedge; assay type: in vivo, Cyperus rotundus; details: Preemergence, 0 to 100 scale
Outline: (§1)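 Weed seeds planted in sandy loam; species kept apart in individual pots or compartments. Preemergence tests: treatment to soil surface within one day. Greenhouse growth, then visual injury scoring at 14–21 days (0–100).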

Green foxtail = experiment: Test D green foxtail; assay type: in vivo; details: Preemergence, 0 to 100 scale
Outline: as §1

sandbur = experiment: Test D sandbur; assay type: in vivo, Cenchrus echinatus; details: Preemergence, 0 to 100 scale
Outline: as §1

large crabgrass = experiment: Test D large crabgrass; assay type: in vivo, Digitaria sanguinalis; details: Preemergence, 0 to 100 scale
Outline: as §1

Spanishneedles = experiment: Test D Spanishneedles; assay type: in vivo, Bidens bipinnata; details: Preemergence, 0 to 100 scale
Outline: as §1

dallisgrass = experiment: Test D dallisgrass; assay type: in vivo, Paspalum dilatatum; details: Preemergence, 0 to 100 scale
Outline: as §1

common groundsel = experiment: Test D common groundsel; assay type: in vivo, Senecio vulgaris; details: Preemergence, 0 to 100 scale
Outline: as §1

common ragweed = experiment: Test D common ragweed; assay type: in vivo, Ambrosia elatior; details: Preemergence, 0 to 100 scale
Outline: as §1

itchgrass = experiment: Test D itchgrass; assay type: in vivo, Rottboellia exaltata; details: Preemergence, 0 to 100 scale
Outline: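 Scoring used a 0–100 visual injury scale, with 0 meaning no effect and 100 complete control, assessed 14–21 days after application alongside untreated pots. Preemergence treatments went onto sandy loam surfaces of separately potted seeds within a day of sowing.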

guineagrass = experiment: Test D guineagrass; assay type: in vivo, Panicum maximum; details: Preemergence, 0 to 100 scale
Outline: as §1

tall mallow = experiment: Test D tall mallow; assay type: in vivo, Malva sylvestris; details: Preemergence, 0 to 100 scale
Outline: as §1

barnyardgrass [1] = experiment: Test C postemergence barnyardgrass; assay type: in vivo, Echinochloa crus-galli; details: 0 to 100 scale, 0 no effect, 100 complete control
Outline: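 Soil: sandy loam/potting mix 60:40. Treatment: postemergence, solvent + surfactant formulation. Readout: visual control score 0–100 vs untreated at ~14–21 days.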

Alexandergrass = experiment: Test D Alexandergrass; assay type: in vivo, Brachiaria plantaginea; details: Preemergence, 0 to 100 scale
Outline: as §1

surinam grass = experiment: Test D surinam grass; assay type: in vivo, Brachiaria decumbens; details: Preemergence, 0 to 100 scale
Outline: as §1

pitted morningglory = experiment: Test D pitted morningglory; assay type: in vivo, Ipomoea lacunosa; details: Preemergence, 0 to 100 scale
Outline: as §1

common pursiane = experiment: Test D common purslane; assay type: in vivo, Portulaca oleracea; details: Preemergence, 0 to 100 scale
Outline: as §1

bermuda-grass = experiment: Test D bermudagrass; assay type: in vivo, Cynodon dactylon; details: Preemergence, 0 to 100 scale
Outline: as §1

velvetleaf = experiment: Test A velvetleaf; assay type: in vivo, Abutilon theophrasti; details: 0 to 10 scale where 0 is no effect and 10 is complete control
Outline: (§2)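 Injury scored visually after about eleven greenhouse days against untreated plants, 0 = no effect, 10 = complete control. Compounds, formulated in surfactant-containing non-phytotoxic solvent, were applied as preemergence soil drench to sandy loam plantings and as postemergence runoff spray at the 1–2 leaf stage.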

barnyardgrass [2] = experiment: Test A barnyardgrass; assay type: in vivo, Echinochloa crus-galli; details: 0 to 10 scale where 0 is no effect and 10 is complete control
Outline: as §2

[3] = Rate 16 g/ha, 0 no injury, 100 complete control
[4] = Rate 32 g/ha, 0 no injury, 100 complete control
[5] = Rate 64 g/ha, 0 no injury, 100 complete control
[6] = Rate 125 g/ha, 0 no injury, 100 complete control

For `C=CCn1c(=O)on(C(=O)N(c2ccc(F)cc2)C(C)C)c1=O` [Compound 146], the “Plant response rating, Purple nutsedge” value (purple nutsedge; [3]) was 40, the “Plant response rating, Purple nutsedge” value (purple nutsedge; [4]) was 40 and the “Purple nutsedge plant response rating” value (purple nutsedge; [5]) was 65. The “Purple nutsedge plant response rating” value (purple nutsedge; [6]) was 70, the “Plant response rating, Purple nutsedge” value (purple nutsedge; Rate 250 g/ha) was 75 and the “Plant response rating, Purple nutsedge” value (purple nutsedge; Rate 500 g/ha) was 100. The “Green foxtail plant response rating” value (Green foxtail; [5]) was 100, the “Plant response rating, Green foxtail” value (Green foxtail; [5]) was 100 and the “Green foxtail plant response rating” value (Green foxtail; [6]) was 100. For the same molecule, the “Plant response rating, Green foxtail” value (Green foxtail; [6]) was 100, the “Plant response rating, Green foxtail” value (Green foxtail; Rate 250 g/ha) was 100 and the “Plant response rating, Green foxtail” value (Green foxtail; Rate 500 g/ha) was 100. The “Plant response rating, Sandbur” value (sandbur; [3]) was 0, the “Plant response rating, Sandbur” value (sandbur; [4]) was 85 and the “Sandbur plant response rating” value (sandbur; [5]) was 100. For the same molecule, the “Sandbur plant response rating” value (sandbur; [6]) was 100, the “Plant response rating, Sandbur” value (sandbur; Rate 250 g/ha) was 100 and the “Plant response rating, Sandbur” value (sandbur; Rate 500 g/ha) was 100. For the same molecule, the “Plant response rating Large crabgrass” value (large crabgrass; [3]) was 90, the “Plant response rating Large crabgrass” value (large crabgrass; [4]) was 100 and the “Plant response rating Large crabgrass” value (large crabgrass; [5]) was 100. The “Plant response rating Large crabgrass” value (large crabgrass; [6]) was 100, the “Plant response rating Large crabgrass” value (large crabgrass; Rate 250 g/ha) was 100 and the “Plant response rating Large crabgrass” value (large crabgrass; Rate 500 g/ha) was 100. The “Plant response rating, Spanishneedles” value (Spanishneedles; [3]) was 0, the “Plant response rating, Spanishneedles” value (Spanishneedles; [4]) was 75 and the “Spanishneedles plant response rating” value (Spanishneedles; [5]) was 85. For the same molecule, the “Spanishneedles plant response rating” value (Spanishneedles; [6]) was 90, the “Plant response rating, Spanishneedles” value (Spanishneedles; Rate 250 g/ha) was 100 and the “Plant response rating, Spanishneedles” value (Spanishneedles; Rate 500 g/ha) was 100. The “Plant response rating, Dallisgrass” value (dallisgrass; [3]) was 80, the “Plant response rating, Dallisgrass” value (dallisgrass; [4]) was 90 and the “Plant response rating, Dallisgrass” value (dallisgrass; [5]) was 98. The “Plant response rating, Dallisgrass” value (dallisgrass; [6]) was 100, the “Plant response rating, Dallisgrass” value (dallisgrass; Rate 250 g/ha) was 100 and the “Plant response rating, Dallisgrass” value (dallisgrass; Rate 500 g/ha) was 100. The “Plant response rating, Com. groundsel” value (common groundsel; [3]) was 65, the “Plant response rating, Com. groundsel” value (common groundsel; [4]) was 0 and the “Plant response rating, Com. groundsel” value (common groundsel; [5]) was 0. For the same molecule, the “Plant response rating, Com. groundsel” value (common groundsel; [6]) was 75, the “Plant response rating, Com. groundsel” value (common groundsel; Rate 250 g/ha) was 85 and the “Plant response rating, Com. groundsel” value (common groundsel; Rate 500 g/ha) was 100. The “Plant response rating, C. ragweed” value (common ragweed; [3]) was 0, the “Plant response rating, C. ragweed” value (common ragweed; [4]) was 0 and the “Plant response rating, C. ragweed” value (common ragweed; [5]) was 0. The “Plant response rating, C. ragweed” value (common ragweed; [6]) was 0, the “Plant response rating, C. ragweed” value (common ragweed; Rate 250 g/ha) was 60 and the “Plant response rating, C. ragweed” value (common ragweed; Rate 500 g/ha) was 75. The “Plant response rating, Itchgrass” value (itchgrass; [3]) was 85, the “Plant response rating, Itchgrass” value (itchgrass; [4]) was 90 and the “Plant response rating, Itchgrass” value (itchgrass; [5]) was 90. The “Plant response rating, Itchgrass” value (itchgrass; [6]) was 90, the “Plant response rating, Itchgrass” value (itchgrass; Rate 250 g/ha) was 100 and the “Plant response rating, Itchgrass” value (itchgrass; Rate 500 g/ha) was 100. For the same molecule, the “Plant response rating, Guineagrass” value (guineagrass; [3]) was 90, the “Plant response rating, Guineagrass” value (guineagrass; [4]) was 95 and the “Plant response rating, Guineagrass” value (guineagrass; [5]) was 100. For the same molecule, the “Plant response rating, Guineagrass” value (guineagrass; [6]) was 100, the “Plant response rating, Guineagrass” value (guineagrass; Rate 250 g/ha) was 100 and the “Plant response rating, Guineagrass” value (guineagrass; Rate 500 g/ha) was 100. The “Plant response rating, Tall Mallow” value (tall mallow; [3]) was 40, the “Plant response rating, Tall Mallow” value (tall mallow; [4]) was 40 and the “Tall Mallow plant response rating” value (tall mallow; [5]) was 50. For the same molecule, the “Tall Mallow plant response rating” value (tall mallow; [6]) was 80, the “Plant response rating, Tall Mallow” value (tall mallow; Rate 250 g/ha) was 90 and the “Plant response rating, Tall Mallow” value (tall mallow; Rate 500 g/ha) was 100. The “Plant response rating, Barnyardgrass” value (barnyardgrass [1]; Rate 140 g/ha) was 60, the “Plant response rating, Barnyardgrass” value (barnyardgrass [1]; Rate 280 g/ha) was 80 and the “Plant response rating, Barnyardgrass” value (barnyardgrass [1]; Rate 560 g/ha) was 85. The “Plant response rating, Barnyardgrass” value (barnyardgrass [1]; Rate 1120 g/ha) was 95, the “Plant response rating, Alexandergrass” value (Alexandergrass; [3]) was 65 and the “Plant response rating, Alexandergrass” value (Alexandergrass; [4]) was 85. For the same molecule, the “Plant response rating, Alexandergrass” value (Alexandergrass; [5]) was 95, the “Plant response rating, Alexandergrass” value (Alexandergrass; [6]) was 98 and the “Plant response rating, Alexandergrass” value (Alexandergrass; Rate 250 g/ha) was 100. The “Plant response rating, Alexandergrass” value (Alexandergrass; Rate 500 g/ha) was 100, the “Plant response rating Surinam grass” value (surinam grass; [3]) was 40 and the “Plant response rating Surinam grass” value (surinam grass; [4]) was 60. For the same molecule, the “Surinam grass plant response rating” value (surinam grass; [5]) was 60, the “Surinam grass plant response rating” value (surinam grass; [6]) was 100 and the “Plant response rating Surinam grass” value (surinam grass; Rate 250 g/ha) was 100. The “Plant response rating Surinam grass” value (surinam grass; Rate 500 g/ha) was 100, the “Plant response rating, P. morninglory” value (pitted morningglory; [3]) was 0 and the “Plant response rating, P. morninglory” value (pitted morningglory; [4]) was 0. The “Plant response rating, P. morninglory” value (pitted morningglory; [5]) was 0, the “Plant response rating, P. morninglory” value (pitted morningglory; [6]) was 0 and the “Plant response rating, P. morninglory” value (pitted morningglory; Rate 250 g/ha) was 0. For the same molecule, the “Plant response rating, P. morninglory” value (pitted morningglory; Rate 500 g/ha) was 20, the “Plant response rating, C. purslane” value (common pursiane; [3]) was 0 and the “Plant response rating, C. purslane” value (common pursiane; [4]) was 0. For the same molecule, the “Plant response rating, C. purslane” value (common pursiane; [5]) was 0, the “Plant response rating, C. purslane” value (common pursiane; [6]) was 0 and the “Plant response rating, C. purslane” value (common pursiane; Rate 250 g/ha) was 0. For the same molecule, the “Plant response rating, C. purslane” value (common pursiane; Rate 500 g/ha) was 0, the “Plant response rating, Bermudagrass” value (bermuda-grass; [3]) was 65 and the “Plant response rating, Bermudagrass” value (bermuda-grass; [4]) was 100. The “Plant response rating, Bermudagrass” value (bermuda-grass; [5]) was 95, the “Plant response rating, Bermudagrass” value (bermuda-grass; [6]) was 90 and the “Plant response rating, Bermudagrass” value (bermuda-grass; Rate 250 g/ha) was 90. For the same molecule, the “Plant response rating, Bermudagrass” value (bermuda-grass; Rate 500 g/ha) was 100.

In the case of `CC(C)N(C(=O)n1oc(=O)n(C2CCCC(C(F)(F)F)C2)c1=O)c1ccc(F)cc1` (stereo not drawn) [Compound 184], the “Plant response rating, Velvetleaf” value (velvetleaf; Postemergence, Rate 1000 g/ha) is reported as 2, the “Plant response rating, Velvetleaf” value (velvetleaf; Pre-emergence, Rate 2000 g/ha) is reported as 0 and the “Plant response rating, Barnyardgrass” value (barnyardgrass [2]; Postemergence, Rate 1000 g/ha) is reported as 2. For the same molecule, the “Plant response rating, Barnyardgrass” value (barnyardgrass [2]; Pre-emergence, Rate 2000 g/ha) was 9.

In the case of `CC(C)N(C(=O)n1oc(=O)n(N(C)c2ccccc2)c1=O)c1ccc(F)cc1` [Compound 177], the “Plant response rating, Velvetleaf” value (velvetleaf; Postemergence, Rate 1000 g/ha) is reported as 2, the “Plant response rating, Velvetleaf” value (velvetleaf; Pre-emergence, Rate 2000 g/ha) is reported as 1 and the “Plant response rating, Barnyardgrass” value (barnyardgrass [2]; Postemergence, Rate 1000 g/ha) is reported as 0. The “Plant response rating, Barnyardgrass” value (barnyardgrass [2]; Pre-emergence, Rate 2000 g/ha) was 9.
